The conditions of series [1]: 300 K, cited from earlier work.
Series [2] in a line: GA Solubility Test (TGA mass balance of saturated solution). Format: physicochemical. Conditions: 4° C.
Protocol: GA Solubility Test: Due to the lactonization potential of glucaric acid, the solubility was estimated using thermogravimetric analysis (TGA) based on the mass balance of the saturated solution. A sample of acetone-washed GA was dissolved in 3 mL of the IPA/water mixture (7:1 by mass) to excess, sonicated, and allowed to settle overnight at each of three temperatures: −20° C., 4° C. and 22° C. Next, the solutions were filtered at a pore size of 0.45 μm. These saturated solutions were dropped into an aluminum Differential Scanning calorimetry (DSC) pan and placed on dry ice to partially freeze them and slow the evaporation rate so that the mass of the total solution could be measured by TGA. The partially frozen solution was heated from room temperature at 5° C. per minute to 110° C. and held isothermally for 15 minutes to allow the solvent to evaporate. In this way, the mass of the remaining species in the pan was determined to μg precision. This was taken to be the total mass of GA that had dissolved in the solvent, including possible lactone products, in a catch-all method.
Series [3] in a line: Enthalpy and entropy of dissolution from Van't Hoff plot of solubility versus temperature. Format: physicochemical. As to the method: The enthalpy and entropy of dissolution of KGA and GA. The enthalpy and entropy of dissolution are calculated here using the solubility of KGA and GA in solutions of identical solvent composition as a function of temperature. The solubility of KGA and GA and related thermodynamic properties (enthalpy and entropy of dissolution) are important because they can be used for building a crystallization model and optimizing crystallization conditions in a large scale process. Accordingly, using the solubility data obtained for each compound (FIG. 2B), the enthalpy and entropy of dissolution of both KGA and GA were calculated using the Van't Hoff equation.
In Equation 1, x is the mole fraction of a compound in the solvent, Δ_dis H and Δ_dis S are the enthalpy and the entropy of dissolution, T is the absolute temperature, and R represents the ideal gas constant. The solubility of KGA or GA was measured by varying temperature to plot ln x versus 1/T, and the resulting values of enthalpy and entropy of dissolution was determined from the slope and the intercept, respectively.
The antisolvent loading in each mixture is the same as used in each purification process. Table 4 provides the dissolution enthalpy and entropy of both KGA and GA calculated from Eq. (1) using the linear fits in FIG. 5. […] The […] of GA solubility data yields a negative entropy of dissolution for GA. This could be because dissolved GA is in equilibrium with lactones, and they form dimers or organized structures that are represented by this value.

The conditions of series [4]: reported pKa value of glucaric acid; cited from earlier work.
The next series can be described thus: physchem. The settings on record: pH 1.5, aqueous buffer, thermodynamic from solid.
Series [5] in a line: KGA Solubility Test (glucarate solubility at various pH in water and acetone/water, quantified by LC). Conditions: for solubility: 22 °C, thermodynamic from solid.
Protocol: (§1) KGA Solubility Test: KGA solubility was quantified by adding excess KGA to UHP water and adjusting pH between 1-6 by addition of 2 M HCl or 2 M KOH with stirring. The samples were mixed, allowed to sit overnight, and then the pH was measured again. The samples were filtered, diluted with a pH 7 phosphate buffer to reduce lactonization and the KGA concentration was quantified by LC. Similarly, KGA solubility in a 25.2 wt. % acetone solution was measured by preparing KGA-saturated solution samples at −20° C., 22° C. and 40° C. and quantified by using the liquid chromatography (LC) method.
(§2) 15 μl samples were injected into a Phenomenex Luna C18(2) 5 μm, 150 mm×4.6 mm column at a temperature of 35° C. An isocratic mobile phase of 20 mM potassium phosphate at pH 7 was pumped at a flow rate of 0.65 mL/min for 7 min.
Series [6] in a line: Reported pKa values of glucaric acid and molar speciation calculated from them. It counts as physicochemical. Conditions: at pH 3.6, calculated from reported pKa values. The source says: The inset photo is the KGA precipitate from broth pH adjusted to 3.5 (left) and broth pH adjusted to 3.5 with acetone 25 wt. % acetone addition (right).

Each structure is given as a SMILES string. ≈ marks a conversion by molar mass, not a printed value.

Protocol for physchem: as §1, §2

Turning to `O=C(O)[C@@H](O)[C@H]1OC(=O)[C@H](O)[C@H]1O` [1,4-lactone, D-glucaro-1,4-lactone], in series [1] (1,4-lactone → GA), the “Rate constant k1” value was 7.04e-05 s⁻¹.

Turning to `O=C1O[C@H]2[C@H](OC(=O)[C@@H]2O)[C@@H]1O` [1,4:6,3-dilactone, D-glucaro-1,4:6,3-dilactone], in series [1] (1,4:6,3-dilactone → 6,3-lactone (so in the source)), the “Rate constant k8” value is 5.01e-05 s⁻¹. For the same compound, the “Rate constant k6” value in series [1] (1,4:6,3-dilactone → 6,3-lactone) is 0.00197 s⁻¹.

Turning to `O=C1O[C@H]([C@@H](O)C(=O)O)[C@H](O)[C@@H]1O` [6,3-lactone, D-glucaro-6,3-lactone], the “Rate constant k7” value in series [1] (6,3-lactone → 1,4:6,3-dilactone (so in the source)) was 0.000664 s⁻¹. Further, the “Rate constant k5” value in series [1] (6,3-lactone → 1,4:6,3-dilactone) was 0.000174 s⁻¹. For the same compound, the “Rate constant k4” value in series [1] (6,3-lactone → GA) was 8.7e-05 s⁻¹.

On to `O=C(O)[C@@H](O)[C@@H](O)[C@H](O)[C@@H](O)C(=O)O` [GA, glucaric acid], for which, in series [2], the “solubility in IPA-water lower than that in ACN-water” value is 53% and the “solubility in IPA-water lower than that in water” value came out at 77%. In series [3] (solvent Isopropanol 87.5 wt. %), this compound gave an AdisH of 0.88 kcal/mol and an AdisS of −40.78 J/mol/K. Further, the “higher solubility than KGA” value (pH 1.5) came out at 56%. Further, the “solubility increase as pH is decreased” value (pH 3.1) is given as “about 55%”. In series [4], the pKa1 is on record as 3.17 and the pKa2 is 3.96. Further, the “Rate constant k2” value in series [1] (GA → 1,4-lactone) is 4.84e-05 s⁻¹. In series [1] (GA → 6,3-lactone), the “Rate constant k3” value is 5.52e-05 s⁻¹. Moreover, the solubility in “physchem” turned out to be 26 mg/mL (≈ 124 mM).

On to `O=C([O-])[C@@H](O)[C@@H](O)[C@H](O)[C@@H](O)C(=O)[O-].[K+].[K+]` [K2GA, dipotassium glucarate], for which, in series [5] (aqueous buffer), the solubility was above 120 mg/mL.

Regarding `O=C(O)[C@@H](O)[C@@H](O)[C@H](O)[C@@H](O)C(=O)[O-].[K+]` [KGA, monopotassium glucarate], the “maximum concentration (molar fraction) of KGA form” value in series [6] was 55 mol %. In series [3] (solvent Acetone 24.7 wt. %), the AdisH is 7.639 kcal/mol and the AdisS worked out at 35.70 J/mol/K. The solubility in series [5] (pH 3.5, aqueous buffer) was around 16 mg/mL. The solubility in series [5] (pH 3.5, aqueous with cosolvent or surfactant or cyclodextrin) was around 8.1 mg/mL. For the same compound, the “additional reduction of solubility by adding acetone” value in series [5] (acetone 25 wt. %, pH 3.5) worked out at 50%. Also, the solubility in broth entry in series [5] (fermentation broth, pH 3.5, acetone (30 vol %)) was “almost zero”. Also, the “saturation limit in high purity water” value in series [5] (high purity water, no pH adjustment) is 0.06 M. In addition, the “solubility relative to the solubility of K2GA at pH 5.8” value in series [5] (pH 3.5) was determined as 13.5 mol %.

A word on the solubility: it is how much of the substance goes into solution per volume.
